From patent US7915238B2, “Immunomodulatory compounds and methods of use thereof” (Eisai R & D Management Co., Ltd., priority 1999, dated 2011)

tested on: Human Whole Blood; assay: Cytokine release in human whole blood (ELISA); format: cell-based; settings: TNF-alpha release; compounds tested at 10 μM; compared to 10 ng/ml LPS; 3-hour incubation
Method: The most readily available human system to test compound activity on monocytes/macrophages is in whole blood. Various concentrations of compounds of the invention were added as 10× stocks in 50 μl of Ca^++, Mg^++-free Hank's balanced salt solution (HBSS) followed by 50 μl of HBSS into 400 μl of heparinized whole blood obtained from normal volunteers (18-51 years old; 110-230 lb.) into the wells of plastic assay plates, for a total volume of 500 μl/well (final concentration of whole blood was 80%). After a 3-hour incubation with gentle shaking at 37° C. in a 5% CO2 atmosphere, the assay plates were centrifuged at 1000×g for 10 min. at 4° C. and plasma was drawn off and frozen at −80° C. Plasma samples were analyzed for TNF-alpha, IL-10, and IL-12 by ELISA (Genzyme Corp., Cambridge, Mass.). Each assay point was tested in triplicate.
This stimulatory activity can be compared to that of 10 ng/ml endotoxin (or LPS) present in similar incubations in the same assay.

| SMILES | TNF-alpha release in whole blood at 10 μM compound (% of 10 ng/ml LPS response) |
| --- | --- |
| CCCCCC/C=C\CCCC(=O)O[C@H](CCCCCCC)CC(=O)NC(COCC[C@H](O)CCCCCCC)COP(=O)([O-])OCCNC(=O)C1OC(C)(C)OC1C(=O)NCCOP(=O)([O-])OCC(COCC[C@H](O)CCCCCCC)NC(=O)C[C@@H](CCCCCCC)OC(=O)CCC/C=C\CCCCCC.[Na+].[Na+] (stereo partly shown) [compound 113634] | 0 % of LPS |
| CCCCCC/C=C\CCCC(=O)O[C@H](CCCCCCC)CC(=O)NC(COCC[C@H](O)CCCCCCC)COP(=O)([O-])OCCNC(=O)c1cc(O)cc(C(=O)NCCOP(=O)([O-])OCC(COCC[C@H](O)CCCCCCC)NC(=O)C[C@@H](CCCCCCC)OC(=O)CCC/C=C\CCCCCC)c1.[Na+].[Na+] (stereo partly shown) [compound 113635] | 0 % of LPS |
| CCCCCC/C=C\CCCC(=O)O[C@H](CCCCCCC)CCOCC(COP(=O)([O-])OCCNC(=O)C(Cc1ccc(O)cc1)C(=O)NCCOP(=O)([O-])OCC(COCC[C@@H](CCCCCCC)OC(=O)CCC/C=C\CCCCCC)NC(=O)CC(=O)CCCCCCCCCCC)NC(=O)CC(=O)CCCCCCCCCCC.[Na+].[Na+] (stereo partly shown) [compound 118023] | 63 % of LPS |
| CCCCCC/C=C\CCCC(=O)O[C@H](CCCCCCC)CCOCC(COP(=O)([O-])OCCNC(=O)CC(=O)NCCOP(=O)([O-])OCC(COCC[C@@H](CCCCCCC)OC(=O)CCC/C=C\CCCCCC)NC(=O)CCCCCCCCCCCCC)NC(=O)CCCCCCCCCCCCC.[Na+].[Na+] (stereo partly shown) [compound 118989] | 159 % of LPS |
| CCCCCC/C=C\CCCC(=O)O[C@H](CCCCCCC)CCOCC(COP(=O)([O-])OCCNC(=O)CC(=O)NCCOP(=O)([O-])OCC(COCC[C@@H](CCCCCCC)OC(=O)CCC/C=C\CCCCCC)NC(=O)CCCCCCCCCCC)NC(=O)CCCCCCCCCCC.[Na+].[Na+] (stereo partly shown) [compound 118999] | 105 % of LPS |
| CCCCCC/C=C\CCCC(=O)O[C@H](CCCCCCC)CCOCC(COP(=O)([O-])OCCNC(=O)CC(=O)NCCOP(=O)([O-])OCC(COCC[C@@H](CCCCCCC)OC(=O)CCC/C=C\CCCCCC)NC(=O)CCCCCCCCCCCCCCC)NC(=O)CCCCCCCCCCCCCCC.[Na+].[Na+] (stereo partly shown) [compound 119000] | 60 % of LPS |
| CCCCCC/C=C\CCCC(=O)O[C@H](CCCCCCC)CCOCC(COP(=O)([O-])OCCNC(=O)CC(=O)NCCOP(=O)([O-])OCC(COCC[C@@H](CCCCCCC)OC(=O)CCC/C=C\CCCCCC)NC(=O)C[C@H](O)CCCCCCCCCCC)NC(=O)C[C@H](O)CCCCCCCCCCC.[Na+].[Na+] (stereo partly shown) [compound 119001] | 113 % of LPS |
| CCCCCCCCCCCCCC(=O)NC(COCC[C@@H](CCCCCCC)OC(=O)CCCCCCCCCCC)COP(=O)([O-])OCCNC(=O)NCCOP(=O)([O-])OCC(COCC[C@@H](CCCCCCC)OC(=O)CCCCCCCCCCC)NC(=O)CCCCCCCCCCCCC.[Na+].[Na+] (stereo partly shown) [compound 119327] | 165 ± 33 (n = 3) % of LPS |
| CCCCCC/C=C\CCCC(=O)O[C@H](CCCCCCC)CCOCC(COP(=O)([O-])OCCNC(=O)C(Cc1ccc(OCCNC(=O)OC(C)(C)C)cc1)C(=O)NCCOP(=O)([O-])OCC(COCC[C@@H](CCCCCCC)OC(=O)CCC/C=C\CCCCCC)NC(=O)CCCCCCCCCCCCC)NC(=O)CCCCCCCCCCCCC.[Na+].[Na+] (stereo partly shown) [compound 119329] | 2 ± 2 (n = 2) % of LPS |
| CCCCCC/C=C\CCCC(=O)O[C@H](CCCCCCC)CCOCC(COP(=O)([O-])OCCNC(=O)C(CCCCNC(=O)OC(C)(C)C)C(=O)NCCOP(=O)([O-])OCC(COCC[C@@H](CCCCCCC)OC(=O)CCC/C=C\CCCCCC)NC(=O)CCCCCCCCCCCCC)NC(=O)CCCCCCCCCCCCC.[Na+].[Na+] (stereo partly shown) [compound 119521] | 103 % of LPS |
| CCCCCC/C=C\CCCC(=O)O[C@H](CCCCCCC)CCOCC(COP(=O)([O-])OCCNC(=O)C(Cc1ccc(OCCN)cc1)C(=O)NCCOP(=O)([O-])OCC(COCC[C@@H](CCCCCCC)OC(=O)CCC/C=C\CCCCCC)NC(=O)CCCCCCCCCCCCC)NC(=O)CCCCCCCCCCCCC.[Na+].[Na+] (stereo partly shown) [compound 119522] | 129 % of LPS |
| CCCCCC/C=C\CCCC(=O)O[C@H](CCCCCCC)CCOCC(COP(=O)([O-])OCCNC(=O)C(CCCCN)C(=O)NCCOP(=O)([O-])OCC(COCC[C@@H](CCCCCCC)OC(=O)CCC/C=C\CCCCCC)NC(=O)CCCCCCCCCCCCC)NC(=O)CCCCCCCCCCCCC.[Na+].[Na+] (stereo partly shown) [compound 119523] | 176 % of LPS |
| CCCCCC/C=C\CCCC(=O)O[C@H](CCCCCCC)CCOCC(COP(=O)(O)OCCNC(=O)C(Cc1ccc(OCCNC(=O)CCCCC(=O)O)cc1)C(=O)NCCOP(=O)(O)OCC(COCC[C@@H](CCCCCCC)OC(=O)CCC/C=C\CCCCCC)NC(=O)CCCCCCCCCCCCC)NC(=O)CCCCCCCCCCCCC (stereo partly shown) [compound 803045] | 65 % of LPS |
| CCCCCCCCCCCCCC(=O)NC(COCC[C@@H](CCCCCCC)OC(=O)CCCCCCCCCCC)COP(=O)([O-])OCCNC(=O)CC(=O)NCCOP(=O)([O-])OCC(COCC[C@@H](CCCCCCC)OC(=O)CCCCCCCCCCC)NC(=O)CCCCCCCCCCCCC.[Na+].[Na+] (stereo partly shown) [compound 803056] | 151 ± 42 % of LPS |
| CCCCCCCCCCCCCC(=O)O[C@@H](COCC[C@@H](CCCCCCC)OC(=O)CCCCCCCCCCC)COP(=O)([O-])OCCNC(=O)CC(=O)NCCOP(=O)([O-])OC[C@H](COCC[C@@H](CCCCCCC)OC(=O)CCCCCCCCCCC)OC(=O)CCCCCCCCCCCCC.[Na+].[Na+] [compound 803059] | 2 % of LPS |
| CCCCCCCCCCCCCC(=O)O[C@@H](COCC[C@@H](CCCCCCC)OC(=O)CCCCCCCCCCC)COP(=O)([O-])OCCNC(=O)NCCOP(=O)([O-])OC[C@H](COCC[C@@H](CCCCCCC)OC(=O)CCCCCCCCCCC)OC(=O)CCCCCCCCCCCCC.[Na+].[Na+] [compound 803592] | 15 % of LPS |

same assay, conditions: whole blood; (576-021) + EtOH; read-out: WB ED50 vs LPS@ 10 ng/ml

| SMILES | EC50 |
| --- | --- |
| CCCCCCCCCCCCCCN[C@@H](COCC[C@@H](CCCCCCC)OC(=O)CCCCCCCCCCC)COP(=O)(O)OCCNC(=O)NCCOP(=O)(O)OC[C@H](COCC[C@@H](CCCCCCC)OC(=O)CCCCCCCCCCC)NCCCCCCCCCCCCCC [compound 804252] | 400 nM |

same assay, conditions: whole blood; vs. % of LPS at 10 ng/ml; read-out: WB ED50 vs LPS@ 10 ng/ml

| SMILES | EC50 |
| --- | --- |
| CCCCCC/C=C\CCCC(=O)O[C@H](CCCCCCC)CCOCC(COP(=O)([O-])OCCNC(=O)CC(=O)NCCOP(=O)([O-])OCC(COCC[C@@H](CCCCCCC)OC(=O)CCC/C=C\CCCCCC)NC(=O)CCCCCCCCCCCCC)NC(=O)CCCCCCCCCCCCC.[Na+].[Na+] (stereo partly shown) [compound 118989] | 100 nM |
| CCCCCC/C=C\CCCC(=O)O[C@H](CCCCCCC)CCOCC(COP(=O)([O-])OCCNC(=O)CC(=O)NCCOP(=O)([O-])OCC(COCC[C@@H](CCCCCCC)OC(=O)CCC/C=C\CCCCCC)NC(=O)C[C@H](O)CCCCCCCCCCC)NC(=O)C[C@H](O)CCCCCCCCCCC.[Na+].[Na+] (stereo partly shown) [compound 119001] | 1230 nM |
| CCCCCCCCCCCCCC(=O)NC(COCC[C@@H](CCCCCCC)OC(=O)CCCCCCCCCCC)COP(=O)([O-])OCCNC(=O)NCCOP(=O)([O-])OCC(COCC[C@@H](CCCCCCC)OC(=O)CCCCCCCCCCC)NC(=O)CCCCCCCCCCCCC.[Na+].[Na+] (stereo partly shown) [compound 119327] | 15 nM |
| CCCCCCCCCCCCCC(=O)O[C@@H](COCC[C@@H](CCCCCCC)OC(=O)CCCCCCCCCCC)COP(=O)([O-])OCCNC(=O)CC(=O)NCCOP(=O)([O-])OC[C@H](COCC[C@@H](CCCCCCC)OC(=O)CCCCCCCCCCC)OC(=O)CCCCCCCCCCCCC.[Na+].[Na+] [compound 803059] | 890 nM |
| CCCCCCCCCCCCCC(=O)N[C@H](COCC[C@@H](CCCCCCC)OC(=O)CCCCCCCCCCC)COP(=O)(O)OCCNC(=O)CC(=O)NCCOP(=O)(O)OC[C@H](COCC[C@@H](CCCCCCC)OC(=O)CCCCCCCCCCC)NC(=O)CCCCCCCCCCCCC [compound 803731] | > 10000 nM |
| CCCCCCCCCCCCCC(=O)N[C@H](COCC[C@@H](CCCCCCC)OC(=O)CCCCCCCCCCC)COP(=O)(O)OCCNC(=O)CC(=O)NCCOP(=O)(O)OC[C@H](COCC[C@@H](CCCCCCC)OC(=O)CCCCCCCCCCC)NC(=O)CCCCCCCCCCCCC [compound 803733] | 700 nM |
| CCCCCCCCCCCCCC(=O)N[C@H](COCC[C@@H](CCCCCCC)OC(=O)CCCCCCCCCCC)COP(=O)(O)OCCNC(=O)NCCOP(=O)(O)OC[C@H](COCC[C@@H](CCCCCCC)OC(=O)CCCCCCCCCCC)NC(=O)CCCCCCCCCCCCC [compound 803789] | 100 nM |
| CCCCCC/C=C\CCCC(=O)O[C@H](CCCCCCC)CCOC[C@@H](COP(=O)(O)OCCNC(=O)CC(=O)NCCOP(=O)(O)OC[C@H](COCC[C@@H](CCCCCCC)OC(=O)CCC/C=C\CCCCCC)NC(=O)CC(=O)CCCCCCCCCCC)NC(=O)CC(=O)CCCCCCCCCCC [compound 804061] | 2500 nM |
| CCCCCCCCCCCC(=O)CC(=O)N[C@H](COCC[C@@H](CCCCCCC)OC(=O)CCCCCCCCCCC)COP(=O)(O)OCCNC(=O)NCCOP(=O)(O)OC[C@H](COCC[C@@H](CCCCCCC)OC(=O)CCCCCCCCCCC)NC(=O)CC(=O)CCCCCCCCCCC [compound 804097] | 300 nM |
| CCCCCCCCCCCCCC(=O)N[C@H](COCC[C@H](CCCCCCC)CCCCCCCCCCCC)COP(=O)(O)OCCNC(=O)NCCOP(=O)(O)OC[C@@H](COCC[C@H](CCCCCCC)CCCCCCCCCCCC)NC(=O)CCCCCCCCCCCCC [compound 804121] | 460 nM |
| CCCCCCCCCCCCCC(=O)N[C@H](COCC[C@H](CCCCCCC)CCCCCCCCCCCC)COP(=O)(O)OCCNC(=O)NCCOP(=O)(O)OC[C@@H](COCC[C@H](CCCCCCC)CCCCCCCCCCCC)NC(=O)CCCCCCCCCCCCC [compound 804130] | 660 nM |
| CCCCCCCCCCCC(=O)NCC(=O)N[C@H](COCC[C@@H](CCCCCCC)OC(=O)CCCCCCCCCCC)COP(=O)(O)OCCNC(=O)NCCOP(=O)(O)OC[C@@H](COCC[C@@H](CCCCCCC)OC(=O)CCCCCCCCCCC)NC(=O)CNC(=O)CCCCCCCCCCC [compound 804221] | 2200 nM |
| CCCCCCCCCCCCCC(=O)N[C@H](COCC[C@H](CCCCCCC)NC(=O)CCCCCCCCCCC)COP(=O)(O)OCCNC(=O)NCCOP(=O)(O)OC[C@@H](COCC[C@H](CCCCCCC)NC(=O)CCCCCCCCCCC)NC(=O)CCCCCCCCCCCCC [compound 804253] | > 10000 nM |
| CCCCCCCCCCCCCCN[C@H](COCC[C@@H](CCCCCCC)OC(=O)CCCCCCCCCCC)COP(=O)(O)OCCNC(=O)NCCOP(=O)(O)OC[C@@H](COCC[C@@H](CCCCCCC)OC(=O)CCCCCCCCCCC)NCCCCCCCCCCCCCC [compound 804281] | 450 nM |
